{
  "source": "paper PMC5428509",
  "about": "“Irreversible inhibition of BTK kinase by a novel highly selective inhibitor CHMFL-BTK-11 suppresses inflammatory response in rheumatoid arthritis model” (Scientific Reports, 2017)",
  "experiment_in_all_cases": "biochemical",
  "set-up_in_all_cases": "KinomeScan competition binding panel (DiscoveRx), percent of control at 1 uM",
  "details_in_all_cases": "read-out: Percent Control",
  "key": {"MYO3B": {"biological_target": "MYO3B (Homo sapiens, UniProt Q8WXR4)", "method_in_brief": "(§1)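 KinomeScan technology used to profile binding across a panel of 456 kinases and mutants.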"}, "PIK3CB": {"biological_target": "PIK3CB (Homo sapiens, UniProt P42338)", "method_in_brief": "as §1"}, "SGK": {"biological_target": "T1, SGK (Homo sapiens, UniProt O00141)", "T1 construct": "gene SGK1", "method_in_brief": "as §1"}, "PLK1": {"biological_target": "PLK1 (Homo sapiens, UniProt P53350)", "sequence (P53350 whole entry)": "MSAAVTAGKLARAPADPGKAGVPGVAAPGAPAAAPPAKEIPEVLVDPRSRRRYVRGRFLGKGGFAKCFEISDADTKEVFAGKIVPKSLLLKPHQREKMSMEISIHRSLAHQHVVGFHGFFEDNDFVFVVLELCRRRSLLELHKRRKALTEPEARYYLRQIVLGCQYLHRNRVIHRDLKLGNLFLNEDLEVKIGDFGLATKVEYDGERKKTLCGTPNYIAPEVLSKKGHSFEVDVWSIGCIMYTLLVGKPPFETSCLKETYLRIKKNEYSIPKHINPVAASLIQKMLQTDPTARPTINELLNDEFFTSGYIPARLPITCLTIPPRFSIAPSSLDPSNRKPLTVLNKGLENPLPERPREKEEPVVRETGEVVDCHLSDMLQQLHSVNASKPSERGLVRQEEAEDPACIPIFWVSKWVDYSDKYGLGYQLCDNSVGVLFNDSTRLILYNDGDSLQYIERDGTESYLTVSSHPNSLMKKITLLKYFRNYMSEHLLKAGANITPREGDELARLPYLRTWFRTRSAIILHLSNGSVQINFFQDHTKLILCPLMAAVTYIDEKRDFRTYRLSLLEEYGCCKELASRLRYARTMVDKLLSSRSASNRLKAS", "method_in_brief": "as §1"}, "NIM1": {"biological_target": "T2, NIM1 (Homo sapiens, UniProt Q8IY84)", "T2 construct": "gene NIM1K", "method_in_brief": "as §1"}, "IKK-epsilon": {"biological_target": "T3, IKK-epsilon (Homo sapiens, UniProt Q14164)", "T3 construct": "gene IKBKE", "method_in_brief": "as §1"}, "MEK2": {"biological_target": "T4, MEK2 (Homo sapiens, UniProt P36507)", "T4 construct": "gene MAP2K2", "method_in_brief": "as §1"}, "MARK1": {"biological_target": "MARK1 (Homo sapiens, UniProt Q9P0L2)", "method_in_brief": "as §1"}, "[1]": {"biological_target": "T5, ABL1(H396P)-phosphorylated (Homo sapiens, UniProt P00519, H396P)", "T5 construct": "phosphorylated", "method_in_brief": "as §1"}, "[2]": {"biological_target": "T6, ABL1(Q252H)-phosphorylated (Homo sapiens, UniProt P00519, Q252H)", "T6 construct": "phosphorylated", "method_in_brief": "as §1"}, "CDK2": {"biological_target": "CDK2 (Homo sapiens, UniProt P24941)", "method_in_brief": "as §1"}, "AAK1": {"biological_target": "AAK1 (Homo sapiens, UniProt Q2M2I8)", "sequence (Q2M2I8 whole entry)": "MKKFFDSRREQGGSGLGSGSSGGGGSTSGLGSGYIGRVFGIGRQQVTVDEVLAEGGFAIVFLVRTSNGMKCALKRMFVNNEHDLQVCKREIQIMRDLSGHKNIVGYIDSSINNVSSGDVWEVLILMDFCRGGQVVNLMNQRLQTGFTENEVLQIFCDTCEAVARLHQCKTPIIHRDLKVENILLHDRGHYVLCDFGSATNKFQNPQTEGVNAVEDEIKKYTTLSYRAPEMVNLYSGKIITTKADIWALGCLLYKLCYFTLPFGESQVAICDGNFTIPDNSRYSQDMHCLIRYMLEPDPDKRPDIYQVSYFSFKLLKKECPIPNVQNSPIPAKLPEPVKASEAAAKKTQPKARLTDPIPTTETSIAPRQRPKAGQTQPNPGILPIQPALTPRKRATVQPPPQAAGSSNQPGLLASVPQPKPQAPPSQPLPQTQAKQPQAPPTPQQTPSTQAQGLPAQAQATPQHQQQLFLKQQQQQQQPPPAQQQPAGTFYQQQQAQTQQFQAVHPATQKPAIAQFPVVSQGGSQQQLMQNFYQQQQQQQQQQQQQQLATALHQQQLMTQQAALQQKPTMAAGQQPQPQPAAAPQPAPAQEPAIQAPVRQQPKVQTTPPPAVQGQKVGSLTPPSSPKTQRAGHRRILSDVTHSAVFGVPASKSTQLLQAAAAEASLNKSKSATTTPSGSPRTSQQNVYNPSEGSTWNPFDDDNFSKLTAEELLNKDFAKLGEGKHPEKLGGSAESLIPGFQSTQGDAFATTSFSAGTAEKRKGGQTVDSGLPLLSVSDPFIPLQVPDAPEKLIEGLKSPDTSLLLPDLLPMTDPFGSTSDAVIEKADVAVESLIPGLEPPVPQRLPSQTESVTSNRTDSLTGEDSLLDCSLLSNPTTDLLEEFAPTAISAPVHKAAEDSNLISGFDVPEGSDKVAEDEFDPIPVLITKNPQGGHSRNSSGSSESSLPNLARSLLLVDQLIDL", "method_in_brief": "as §1"}, "PRKD2": {"biological_target": "PRKD2 (Homo sapiens, UniProt Q9BZL6)", "sequence (Q9BZL6 whole entry)": "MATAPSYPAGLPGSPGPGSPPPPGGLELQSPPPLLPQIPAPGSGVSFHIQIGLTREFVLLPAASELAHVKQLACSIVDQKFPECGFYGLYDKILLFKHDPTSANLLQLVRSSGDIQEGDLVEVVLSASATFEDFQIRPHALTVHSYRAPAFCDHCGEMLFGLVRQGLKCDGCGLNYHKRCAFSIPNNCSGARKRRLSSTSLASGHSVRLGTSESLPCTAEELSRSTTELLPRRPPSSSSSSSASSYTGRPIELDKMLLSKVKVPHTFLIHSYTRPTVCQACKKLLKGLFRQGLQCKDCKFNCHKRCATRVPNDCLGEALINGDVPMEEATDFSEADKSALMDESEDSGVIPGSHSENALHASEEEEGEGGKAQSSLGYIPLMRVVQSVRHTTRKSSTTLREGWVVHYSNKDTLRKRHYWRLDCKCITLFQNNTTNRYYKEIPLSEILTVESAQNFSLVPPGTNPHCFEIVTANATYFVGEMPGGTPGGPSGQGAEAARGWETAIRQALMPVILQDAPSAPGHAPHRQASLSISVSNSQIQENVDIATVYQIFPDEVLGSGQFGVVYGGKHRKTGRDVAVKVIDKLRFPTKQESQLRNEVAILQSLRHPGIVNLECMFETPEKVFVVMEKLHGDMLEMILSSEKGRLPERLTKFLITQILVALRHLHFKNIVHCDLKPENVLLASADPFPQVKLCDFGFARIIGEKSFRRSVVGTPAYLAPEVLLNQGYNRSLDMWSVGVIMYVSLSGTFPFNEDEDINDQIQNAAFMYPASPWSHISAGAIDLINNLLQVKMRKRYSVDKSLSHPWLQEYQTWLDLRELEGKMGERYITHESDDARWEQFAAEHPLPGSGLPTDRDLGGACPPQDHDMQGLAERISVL", "method_in_brief": "as §1"}, "CSNK1E": {"biological_target": "CSNK1E (Homo sapiens, UniProt P49674)", "method_in_brief": "as §1"}, "MKNK1": {"biological_target": "MKNK1 (Homo sapiens, UniProt Q9BUB5)", "method_in_brief": "as §1"}, "LKB1": {"biological_target": "T7, LKB1 (Homo sapiens, UniProt Q15831)", "T7 construct": "gene STK11", "method_in_brief": "as §1"}, "FGFR3(G697C)": {"biological_target": "FGFR3(G697C) (Homo sapiens, UniProt P22607, G697C)", "method_in_brief": "as §1"}, "AMPK-alpha2": {"biological_target": "T8, AMPK-alpha2 (Homo sapiens, UniProt P54646)", "T8 construct": "gene PRKAA2", "method_in_brief": "as §1"}, "ALK(C1156Y)": {"biological_target": "ALK(C1156Y) (Homo sapiens, UniProt Q9UM73, C1156Y)", "method_in_brief": "as §1"}, "BMX": {"biological_target": "BMX (Homo sapiens, UniProt P51813)", "sequence (P51813 whole entry)": "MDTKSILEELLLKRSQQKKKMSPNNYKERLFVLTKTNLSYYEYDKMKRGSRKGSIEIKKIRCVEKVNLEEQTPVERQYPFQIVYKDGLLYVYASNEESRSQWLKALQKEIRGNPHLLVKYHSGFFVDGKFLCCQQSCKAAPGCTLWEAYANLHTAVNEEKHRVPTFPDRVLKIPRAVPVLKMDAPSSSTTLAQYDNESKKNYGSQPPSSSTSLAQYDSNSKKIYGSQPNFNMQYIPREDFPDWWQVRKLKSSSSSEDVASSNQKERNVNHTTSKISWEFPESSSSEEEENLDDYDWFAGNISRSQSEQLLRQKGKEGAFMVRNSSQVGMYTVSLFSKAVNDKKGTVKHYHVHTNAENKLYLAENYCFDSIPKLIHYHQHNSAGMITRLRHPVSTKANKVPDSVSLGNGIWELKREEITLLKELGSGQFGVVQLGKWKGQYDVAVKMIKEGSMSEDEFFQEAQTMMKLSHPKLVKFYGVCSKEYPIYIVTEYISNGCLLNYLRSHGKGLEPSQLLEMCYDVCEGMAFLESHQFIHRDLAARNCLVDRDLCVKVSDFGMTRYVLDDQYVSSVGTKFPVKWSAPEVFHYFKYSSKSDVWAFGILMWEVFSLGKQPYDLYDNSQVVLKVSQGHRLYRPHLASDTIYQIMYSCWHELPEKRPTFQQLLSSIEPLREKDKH", "method_in_brief": "as §1"}, "PRKCI": {"biological_target": "PRKCI (Homo sapiens, UniProt P41743)", "sequence (P41743 whole entry)": "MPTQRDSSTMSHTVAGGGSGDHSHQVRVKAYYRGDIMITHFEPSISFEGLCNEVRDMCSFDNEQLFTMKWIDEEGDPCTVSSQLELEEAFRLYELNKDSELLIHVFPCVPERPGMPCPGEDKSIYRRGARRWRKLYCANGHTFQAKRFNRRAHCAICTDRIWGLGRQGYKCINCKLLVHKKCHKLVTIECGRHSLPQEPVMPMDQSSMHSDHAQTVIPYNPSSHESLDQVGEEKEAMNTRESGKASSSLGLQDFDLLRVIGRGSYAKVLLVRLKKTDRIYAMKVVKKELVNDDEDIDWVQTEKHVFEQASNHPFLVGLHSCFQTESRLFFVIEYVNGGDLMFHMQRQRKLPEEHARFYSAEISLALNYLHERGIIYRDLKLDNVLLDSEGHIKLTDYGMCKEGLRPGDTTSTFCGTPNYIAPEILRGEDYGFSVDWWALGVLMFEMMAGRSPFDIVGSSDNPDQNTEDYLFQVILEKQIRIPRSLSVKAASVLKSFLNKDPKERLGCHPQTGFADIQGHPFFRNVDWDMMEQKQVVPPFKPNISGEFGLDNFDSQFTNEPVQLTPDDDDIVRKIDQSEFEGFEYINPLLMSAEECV", "method_in_brief": "as §1"}, "PAK7": {"biological_target": "T9, PAK7 (Homo sapiens, UniProt Q9P286)", "T9 construct": "gene PAK5", "T9 sequence (Q9P286 whole entry)": "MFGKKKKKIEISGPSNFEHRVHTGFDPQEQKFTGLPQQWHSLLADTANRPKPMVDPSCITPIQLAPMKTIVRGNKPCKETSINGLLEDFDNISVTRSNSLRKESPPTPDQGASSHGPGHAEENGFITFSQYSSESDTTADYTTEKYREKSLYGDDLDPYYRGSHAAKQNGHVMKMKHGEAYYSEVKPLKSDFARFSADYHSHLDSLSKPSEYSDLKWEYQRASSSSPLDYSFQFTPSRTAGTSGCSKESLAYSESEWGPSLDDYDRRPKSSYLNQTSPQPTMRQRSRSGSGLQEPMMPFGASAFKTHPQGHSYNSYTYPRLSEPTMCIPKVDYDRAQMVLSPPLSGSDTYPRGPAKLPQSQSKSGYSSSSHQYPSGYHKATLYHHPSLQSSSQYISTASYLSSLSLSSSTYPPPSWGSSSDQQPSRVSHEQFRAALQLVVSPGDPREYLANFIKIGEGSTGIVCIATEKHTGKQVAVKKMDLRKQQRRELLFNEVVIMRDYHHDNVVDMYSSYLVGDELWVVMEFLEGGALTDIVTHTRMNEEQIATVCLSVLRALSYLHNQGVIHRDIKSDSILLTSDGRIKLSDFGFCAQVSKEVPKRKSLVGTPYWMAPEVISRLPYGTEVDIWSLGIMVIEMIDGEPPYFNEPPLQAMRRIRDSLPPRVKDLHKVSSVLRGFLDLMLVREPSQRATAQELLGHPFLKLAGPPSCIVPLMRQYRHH", "method_in_brief": "as §1"}, "MAP3K15": {"biological_target": "MAP3K15 (Homo sapiens, UniProt Q6ZN16)", "method_in_brief": "as §1"}, "MAP3K3": {"biological_target": "MAP3K3 (Homo sapiens, UniProt Q99759)", "sequence (Q99759 whole entry)": "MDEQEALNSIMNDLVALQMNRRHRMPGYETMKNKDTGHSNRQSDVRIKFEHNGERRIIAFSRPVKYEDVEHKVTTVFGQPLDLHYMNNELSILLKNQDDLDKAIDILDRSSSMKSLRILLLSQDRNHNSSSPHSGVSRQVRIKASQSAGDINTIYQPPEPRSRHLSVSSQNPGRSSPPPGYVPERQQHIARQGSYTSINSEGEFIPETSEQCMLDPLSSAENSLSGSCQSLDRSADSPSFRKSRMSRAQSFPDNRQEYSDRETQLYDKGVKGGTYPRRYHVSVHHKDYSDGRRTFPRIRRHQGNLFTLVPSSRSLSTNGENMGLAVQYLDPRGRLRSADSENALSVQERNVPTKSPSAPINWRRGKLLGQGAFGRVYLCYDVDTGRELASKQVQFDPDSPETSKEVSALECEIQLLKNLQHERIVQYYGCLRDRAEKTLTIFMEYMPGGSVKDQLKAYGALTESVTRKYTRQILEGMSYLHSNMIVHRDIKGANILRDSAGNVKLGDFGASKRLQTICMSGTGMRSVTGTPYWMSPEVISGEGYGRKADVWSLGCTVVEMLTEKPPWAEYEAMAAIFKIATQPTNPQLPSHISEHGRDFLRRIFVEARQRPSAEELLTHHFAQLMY", "method_in_brief": "as §1"}, "MRCKA": {"biological_target": "T10, MRCKA (Homo sapiens, UniProt Q5VT25)", "T10 construct": "gene CDC42BPA", "method_in_brief": "as §1"}},
  "data": [
    {"smiles": "C=CC(=O)Nc1cc(-n2c(=O)ccc3cnc4ccc(-n5cccn5)cc4c32)ccc1C", "note": "[CHMFL-BTK-11]", "values": [
      {"measurement": "remaining binding at 1 µM", "setting": "MYO3B", "result": 90, "unit": "%"},
      {"measurement": "remaining binding at 1 µM", "setting": "PIK3CB", "result": 100, "unit": "%"},
      {"measurement": "remaining binding at 1 µM", "setting": "SGK", "result": 65, "unit": "%"},
      {"measurement": "remaining binding at 1 µM", "setting": "PLK1", "result": 99, "unit": "%"},
      {"measurement": "remaining binding at 1 µM", "setting": "NIM1", "result": 100, "unit": "%"},
      {"measurement": "remaining binding at 1 µM", "setting": "IKK-epsilon", "result": 96, "unit": "%"},
      {"measurement": "remaining binding at 1 µM", "setting": "MEK2", "result": 92, "unit": "%"},
      {"measurement": "remaining binding at 1 µM", "setting": "MARK1", "result": 82, "unit": "%"},
      {"measurement": "remaining binding at 1 µM", "setting": "[1]", "result": 100, "unit": "%"},
      {"measurement": "remaining binding at 1 µM", "setting": "[2]", "result": 100, "unit": "%"},
      {"measurement": "remaining binding at 1 µM", "setting": "CDK2", "result": 100, "unit": "%"},
      {"measurement": "remaining binding at 1 µM", "setting": "AAK1", "result": 62, "unit": "%"},
      {"measurement": "remaining binding at 1 µM", "setting": "PRKD2", "result": 100, "unit": "%"},
      {"measurement": "remaining binding at 1 µM", "setting": "CSNK1E", "result": 100, "unit": "%"},
      {"measurement": "remaining binding at 1 µM", "setting": "MKNK1", "result": 92, "unit": "%"},
      {"measurement": "remaining binding at 1 µM", "setting": "LKB1", "result": 91, "unit": "%"},
      {"measurement": "remaining binding at 1 µM", "setting": "FGFR3(G697C)", "result": 100, "unit": "%"},
      {"measurement": "remaining binding at 1 µM", "setting": "AMPK-alpha2", "result": 86, "unit": "%"},
      {"measurement": "remaining binding at 1 µM", "setting": "ALK(C1156Y)", "result": 94, "unit": "%"},
      {"measurement": "remaining binding at 1 µM", "setting": "BMX", "result": 23, "unit": "%"},
      {"measurement": "remaining binding at 1 µM", "setting": "PRKCI", "result": 69, "unit": "%"},
      {"measurement": "remaining binding at 1 µM", "setting": "PAK7", "result": 100, "unit": "%"},
      {"measurement": "remaining binding at 1 µM", "setting": "MAP3K15", "result": 80, "unit": "%"},
      {"measurement": "remaining binding at 1 µM", "setting": "MAP3K3", "result": 100, "unit": "%"},
      {"measurement": "remaining binding at 1 µM", "setting": "MRCKA", "result": 100, "unit": "%"}
    ]}
  ]
}
